Assay results reported in patent US20210371413A1, “POLYCYCLIC AMIDES AS CYTOTOXIC AGENTS” (FEMTOGENIX LIMITED, priority 2018, published 2021).

Legend:
Type in all cases: cell-based
SW620 = test: In vitro cell-killing, MTT assay, SW620; settings: Homo sapiens, SW-620, 72 h, read-out: In vitro cell-killing (IC50), Cytotoxicity (72 hours)
Procedure: Tumor cell lines were maintained in RPMI1640 medium supplemented with 10% heat-inactivated fetal bovine serum, 2 mM L-glutamine and 1 mM sodium pyruvate. 1800 cells per well were seeded in a volume of 180 μl in a 96-well flat bottom polystyrene plate. The cells were allowed to adhere overnight at 37° C. in a CO2 incubator. Ligands were initially formulated in DMSO, and stocks stored at −80° C. They were then further formulated at lox concentration in RPMI1640 medium. 20 ul of diluted samples were added into each treatment well. On each plate, blank wells with no cells, and untreated wells containing cells, were included. Plates were then cultured at 37° C. in a CO2 incubator for 72 hrs. Cytotoxicity was evaluated using a tetrazolium salt-based assay, the MTT assay. After 72 hours, the supernatant was removed from each well and 200 μl of a sterile filtered 500 μg/ml MTT solution in water added to each well. […] The plate was then read on a plate reader at 540 nm, and percentage cell survival calculated as follows: ((mean absorbance treated wells at concentration x−mean absorbance blank wells)+(mean absorbance untreated wells at concentration x−mean absorbance blank wells))×100. Data were plotted as concentration in nM vs. % cell survival in Microsoft Excel, and IC50 values (concentration where cell survival is reduced by a half) were determined from the graph.

U138-MG (Glioblastoma) = test: In vitro cytotoxicity, MTT assay, U138-MG; settings: Homo sapiens, U138-MG, 72 h, read-out: Cytotoxicity
Procedure: The in vitro cytotoxicity of a selection of compounds were evaluated in a panel of cell lines using the standard MTT assay for a 72 hour incubation period (Table 2). Free payloads produced cytotoxicities in the nanomolar range.
Tumor cell lines were maintained in RPMI1640 medium supplemented with 10% heat-inactivated fetal bovine serum, 2 mM L-glutamine and 1 mM sodium pyruvate. 1800 cells per well were seeded in a volume of 180 μl in a 96-well flat bottom polystyrene plate. The cells were allowed to adhere overnight at 37° C. in a CO2 incubator. Ligands were initially formulated in DMSO, and stocks stored at −80° C. They were then further formulated at lox concentration in RPMI1640 medium. 20 ul of diluted samples were added into each treatment well. On each plate, blank wells with no cells, and untreated wells containing cells, were included. Plates were then cultured at 37° C. in a CO2 incubator for 72 hrs. Cytotoxicity was evaluated using a tetrazolium salt-based assay, the MTT assay. After 72 hours, the supernatant was removed from each well and 200 μl of a sterile filtered 500 μg/ml MTT solution in water added to each well. The plates were then incubated at 37° C. in a CO2 incubator for 4 hrs. The supernatant was then removed and the formazan crystals formed solubilized by adding 150 μl of DMSO to each well. The plate was then read on a plate reader at 540 nm, and percentage cell survival calculated as follows: ((mean absorbance treated wells at concentration x−mean absorbance blank wells)+(mean absorbance untreated wells at concentration x−mean absorbance blank wells))×100. Data were plotted as concentration in nM vs. % cell survival in Microsoft Excel, and IC50 values (concentration where cell survival is reduced by a half) were determined from the graph.

[1] = test system: Klebsiella pneumoniae KP4631; test: MIC assay, Klebsiella pneumoniae KP4631; settings: Klebsiella pneumoniae, KP4631
Procedure: The antimicrobial activity of a selection of compounds were evaluated in a Gram-negative, Gram-positive and multi-resistant bacteria using the standard minimum inhibitory concentration (MIC) assay for an overnight (16-20 hour) incubation period. Commercially marketed antibiotics (Table 3) were used as positive controls during the study.
Mueller-Hinton broth (MH Broth) (Sigma-Aldrich; Millipore, cat. no. 70192) and Mueller-Hinton agar (MHA) (Sigma-Aldrich; Millipore, cat. no. 70191) were prepared as per manufacturer's instructions and sterilized by autoclaving. Approximately 20 mL of MHA was poured onto 15×100 mm petri dishes and allowed to set. Agar plates were then stored in plastic bags in an inverted position at 4° C.
Bacterial strains were provided in the form of a glycerol stock, stored at −80° C. For the purpose of preparation of bacterial suspension, appropriate strains were removed from −80° C. storage onto dry ice and not allowed to freeze-thaw.
Stock solutions of 16, 45 and 73 were provided in DMSO at 1.28 mg/mL concentration. From this stock solution, working solutions of the desired concentration were prepared by diluting with MHB.
MIC assay methodology was adapted from previously published work.
Bacterial isolate to be tested was streaked onto a nutrient-rich MH agar plate and incubated overnight at 37° C. in order to obtain single colonies.
After overnight incubation, single colonies with the same morphological appearance were chosen from the agar plate. These were touched using a sterile loop and transferred into a tube containing 10 mL of a MH broth. They were then mixed using vortex mixer and incubated at 35-37° C. in a shaker at 200 r.p.m. overnight.
Determination of OD600 and cfu/mL count OD600 (the optical density of a sample measured at a wavelength of 600 nm) of the overnight culture was measured. Because of the loss of linearity at OD600 values […], it was necessary to dilute the sample until the OD600 value was below 1.0. For all tested bacteria, a dilution of 1:10 was appropriate (100 μL in 900 μL broth).
The overnight culture was then diluted 1:100 using sterile tubes and MH broth (dilution: 10^−2). Serial dilution was then performed six times until dilution of 10^−8 was reached. 100 μL of dilutions 10^−7 and 10^−8 were plated onto MH agar plates in triplicate using a sterile cell spreader and incubated overnight at 37° C.
After overnight incubation, colonies on plates were counted and cfu per mL calculated. The following formula was applied: […]
After overnight incubation, the OD600 was measured and the overnight culture was diluted accordingly to obtain 1×10^8 cfu/mL. […]
The 96-well plates were read using a SpectraMax plate reader at an absorbance of 600 nm. […]

## COc1cc2c(cc1OCCCC(=O)Nc1cc(C(=O)Nc3ccc(-c4cc(C(=O)Nc5ccc(N)cc5)n(C)c4)cc3)n(C)c1)NC[C@@H]1CCCCN1C2=O [Compound 16, (S)—N-(4-Aminophenyl)-4-(4-(4-(4-((2-methoxy-12-oxo-5,6,6a,7,8,9,10,12-octahydrobenzo[e]pyrido[1,2-a][1,4]diazepin-3-yl)oxy)butanamido)-1-methyl-1H-pyrrole-2-carboxamido)phenyl)-1-methyl-1H-pyrrole-2-carboxamide]
SW620
  IC50: 79 nM
U138-MG (Glioblastoma)
  IC50: 184 nM
[1]
  MIC: > 8 µg/mL
